Assay results published in patent publication US5688789A, “PCP receptor ligands and the use thereof” (State of Oregon, acting by and through the Oregon State …, priority 1995, dated 1997).

Experiments:
PCP receptor [1] = experiment: PCP receptor binding against 3H-MK-801 (Example 5, Table 1); conditions: vs. 3H-MK-801; ± sem (n)
Procedure: The PCP receptor binding properties of various compounds of the invention against ^3 H-5-methyl-10,11-dihydro-5H-dibenzo[a,d]cycloheptene-5,10-imine (^3 H-MK-801) were determined.

rat hippocampal cells = experiment: In vitro neurotoxicity assay: protection against glutamate, Trypan Blue survival count (Example 7); format: cell-based; conditions: glutamate 0-1000 uM, 1 uM glycine
Procedure: In the cytotoxicity studies, cultured mammalian neurons expressing EAA receptors are exposed in vitro to glutamate and the particular compound under investigation. The survival percentage of cells indicates the ability of the compound to protect against glutamate-induced neuronal death.
Dissociated rat hippocampal cultures were prepared using a modification of the method of Huettner and Baughman [Huettner, J. E. and Baugham, R. W., J. Neurosci. 6:3044-3060 (1986)]. The cortices were removed from 1-3 day post-natal rats (Sprague-Dawley) that had been anesthetized with chloral hydrate, and the hippocampi were dissected out and placed in Cl^- free dissociation medium supplemented with 1 mM kynurenic acid and 10 mM MgSO4 (Choi, D. W., J. Neurosci. 7:369-379 (1987)). The hippocampi were washed in the dissociation medium, then incubated for 2×20 minutes at 37° C. in dissociation medium containing 10 units/ml of Papain (Worthington). After the enzyme treatment, the tissue was incubated for three 5-minute periods at 37° C. with 10 mg/ml trypsin inhibitor (Sigma type II-0).
The cells were dissociated by trituration in growth medium and plated as 0.15 ml droplets of cell suspension onto the center of 35 mm Primaria (Falcon) dishes that had been stamped with a labeled 26×26 grid of approximately 0.64 cm^2 total area using a Mecanex BB form (WPI, New Haven, Conn.) and coated with poly-D-lysine and laminin (Collaborative Research). The cell density was between 2.5 and 4.0×10^5 cells per dish. The growth medium was Eagles minimum essential media (MEM, Earle's salts) supplemented with 5% fetal bovine serum (CCL), 5% defined supplemented calf serum (HyClone), 50 mM glucose, 50 units/ml penicillin/streptomycin and MITO+serum extender (Collaborative Research). The cells were maintained at 37° C. in a humidified 4.5% CO2 atmosphere. […]
Before treatment, sister cultures were examined under phase-contrast microscopy to ensure that the cultures were of a similar density. […] The cultures were washed three times and the surviving cells counted in the grid area using phase contrast microscopy. […]

PCP receptor [2] = experiment: PCP receptor affinity of IDDC analogs vs. [3H]MK-801 in rat brain membrane (Example 10, Table 2); conditions: read-out: PCP Receptor Affinity IC50 in Rat Brain Membrane vs. [3H]MK-801, MEAN
[3] = tested on: NMDA receptor-ion channel complex; experiment: Whole-cell patch clamp: block of NMDA-induced currents on cultured rat hippocampal neurons (Example 6); format: cell-based; conditions: rat hippocampal neurons, compared with MK-801
Procedure: In the electrophysiological studies the compounds are evaluated with respect to their ability to block the ion channel of the NMDA receptor channel complex and thereby inhibit Ca^2+ and Na^+ ion flow into the nerve cell. Initially, the ion channels are opened by activating the NMDA receptor. Ion flow is determined by measuring the passage of electrical current, i.e., a use-dependent decrease in electrical current indicates blocking of the ion channel due to binding of a ligand at a site within the channel.
Hippocampal neurons were obtained from the CA1 region of the hippocampus from 1-3 day-old-newborn rats (Long-Evans). Small blocks of tissue ([…]1mm^3) were incubated in papain (20 units ml^-1; Worthington-Cooper) for 30 minutes. The tissue was dissociated into a single cell suspension by trituration with a fire-polished Pasteur pipette in complete growth medium (Earle's MEM, 20 mM glucose, 50 units/ml penicillin/streptomycin, 5% heat-inactivated fetal calf serum, Serum Extender from Collaborative Research) containing 2.5 mg/ml bovine serum albumin and 2.5 mg/ml trypsin inhibitor (Sigma). The cells were plated onto glass coverslips coated with collagen/poly-D-lysine. Cultures were fed every 3 days by replacing haft the volume of medium. Arabinosylcytosine (5×10^-6 M) was added to the cultures for 1 or 2 days during the first week after plating to suppress the proliferation of non-neuronal cells.
All electrophysiology experiments were performed with the whole-cell mode of patch clamp recording [Hamill, O. D., Marty, A., Neher, E., Sakman, B., and Sigworth, F. J., Pflugers Arch. 391:85-100 (1981)] from neurons grown for 1-3 weeks in culture. Agonists and agonist/antagonist combinations were applied by a U-tube mol (Fenwick et al, J. Physiol. 331:577-597 (1982)) to neurons in whole-cell experiments. The external solution contained (in mM) NaCl 140, KCl 3.5, CaCl2 1, glucose 5, picrotoxinin 0.02, tetrodotoxin (TTX) 5×10^-4, and N-2-hydroxyethyl-piperazine-N'-2-ethanesulfonic acid (HEPES) 10. The pH of this solution was adjusted to 7.4 with NaOH. The internal (patch electrode) solution contained (mM) Cs-methanesulfonate 120, CsCl 10, ethyleneglycol-bis-(β-aminoethylether)-N,N,N',N'-tetraacetic acid (EGTA) 10, HEPES 10 (pH adjusted to 7.0 with CsOH). Membrane current was filtered at 4000 Hz (-3dB; 8-pole Bessel) and recorded on magnetic tape for later analysis. Experiments were performed at room temperature (20°-25° C.). [Sources of chemicals: N-methyl-D-aspartate, Cambridge Research Biochemicals; pirotoxinin, Sigma Chemical Company; salts for recording solutions, Aldrich (Gold Label) or Alfa (Puratronic). [^3 H]Kainate and [3H]CPP and [^3 H]AMPA were purchased from Dupont/NEN (Boston, Mass.)].
Repetitive applications (every 30 s) to the same cell produced currents which varied less than 5% over a period of at least 30 minutes.

[4] = tested on: lesions caused by NMDA injection; experiment: In vivo neurotoxicity assay: protection against lesions caused by cerebral NMDA injection (Example 8); conditions: about 0.30 to 60 μMol/kg, intraperitoneal, 15 minutes following cerebral NMDA injection
Description: In the in vivo neurotoxicity studies, the experimental model of McDonald, D. W., et al., (In: Sigma and Phencyclidine-like Compounds as Molecular Probes in Biology, Ed. Domino, E. F., and Kamenka, J.-M., pp. 697-707 (1988), NPP Books, Ann Arbor, Mich.) may be employed. In this model, NMDA injection into one cerebral hemisphere causes injury which resembles the lesion produced by hypoxia-ischemia. The ability of compounds to limit the NMDA-induced lesion is a measure of their neuroprotective properties; since the compounds may be administered intraperitoneally, the model can also provide information about a compound's ability to cross the blood-brain barrier.
The experimental model of McDonald, J. W., et al., supra, was employed with the single alteration in protocol of an intraperitoneal injection of the test compound 15 minutes following, rather than preceding, the cerebral NMDA injection.

Row | Structure (SMILES) | IC50 (PCP receptor [1]) [nM] | cell survival compared to control (rat hippocampal cells; 5 uM) | IC50 (PCP receptor [2]) [nM] | cell survival compared to control (rat hippocampal cells; 10 uM) | use-dependent blockage of NMDA-induced (+glycine) responses [3] | protection against lesions caused by NMDA injection [4]
1 | c1ccc2c(c1)CC1NCC2c2ccccc21 (racemic) [(±)-IDDC, (±) 10,5-(iminomethano)-10,11-dihydro-5H-dibenzo[a,d]cycloheptene] | 41 ± 6 | enhanced cell survival when compared to control values | 74.6 | – | – | –
2 | CN1CC2c3ccccc3CC1c1ccccc12 (single isomer, unassigned) [N-methyl IDDC, N-methyl-10,5-(iminomethano)-10,11-dihydro-5H-dibenzo[a,d]cycloheptene] | – | – | – | enhanced cell survival when compared to control values | – | –
3 | c1ccc2c(c1)C[C@H]1NC[C@@H]2c2ccccc21 [(+)-IDDC, (+)-10(R),5(S)-(iminomethano)-10,11-dihydro-5H-dibenzo[a,d]cycloheptene] | 40 ± 5 | enhanced cell survival when compared to control values | 40 | – | very similar to the use dependent blocking action exhibited by MK-801 | protect against the lesions caused by NMDA injection
